Counter-ions that a name gives are not always drawn. Like-named read-outs stand apart in the source and are kept apart here.
Key:
[1] = Stability test of BTG 1640 salts: purity under preservation conditions; type: physicochemical
Procedure: Samples of 100 mg each of BTG 1640 hydrochloride were subjected to the following preservation conditions:
The purities were then analyzed periodically, initially every three months, in order to underline possible variations.
Samples of 100 mg each of BTG 1640 fumarate prepared according to example 1C were subjected to the following preservation conditions:
Quarterly and in an overall period of nine months its purity was then analyzed in order to underline possible variations. The results in the following Table 3 were obtained:
As comparison other salts of BTG 1640 were prepared, and exactly: • BTG 1640 methanesulphonate • BTG 1640 maleate • BTG 1640 succinate following the procedure indicated in example 1 and substituting methanesolphonic, maleic and succinic acids for fumaric acid.
The stabilities were then evaluated by subjecting samples of 100 mg of each salt to the following analogous preservation conditions:
Quarterly and in an overall period of nine months their purity was then analyzed in order to underline possible variations.
The obtained results, together with those obtained in Example 2 for hydrochloride, in Example 3 for fumarate in order to make easier the comparison, were in Table 5 and represented in FIGS. 5-8.

[2] = Stability test of BTG 1640 salts: evaluation of total impurities; type: physicochemical
Procedure: Contemporaneously, the impurity analysis in the conditions a)-d) of T/% RH were carried out.
As a confirmation of such evidence, a test for the evaluation of the impurity percentage of the sample subjected to the same conditions a)-d) of T/% RH was parallely carried out. The experimental values in Table 4 were obtained.

[3] = Absorption kinetic: plasma concentration of BTG 1640 after oral gavage; type: in vivo, rats Sprague Dawley; settings: rat, in vivo, po, 10 mg/kg
Procedure: Absorption extent and rate of molecule BTG 1640 in its forms of fumarate and hydrochloride salts were evaluated.
With this intent, the two salts were dispersed in an aqueous suspension of arabic gum at 5% thus obtaining two formulations, each one orally administered through oesophageous gavage at dose of 10 mg/kg (expressed as free base of BTG 1640) to five rats Sprague Dawley.
Plasma concentration of molecule BTG 1640 was determined at different time points.

female CD-1 mice = assay: Acute oral toxicity; type: in vivo
Procedure: Acute oral toxicity of salts hydrochloride and fumarate of BTG-1640 was evaluated.
The two salts were dispersed in an aqueous suspension, thus obtaining two formulations, each one orally administered through oesophageous gavage at dose of 2000 mg/kg bw (expressed as free base of BTG 1640) to one of two groups comprising three female CD-1 mice per group.
The observation lasted 14 days.

[4] = T = 25° C., humidity 60% RH, time 0
[5] = T = 25° C., humidity 60% RH, time 3 (months)
[6] = T = 25° C., humidity 60% RH, time 6 (months)
[7] = T = 25° C., humidity 60% RH, time 9 (months)
[8] = T = 30° C., humidity 65% RH, time 0
[9] = T = 30° C., humidity 65% RH, time 3 (months)
[10] = T = 30° C., humidity 65% RH, time 6 (months)
[11] = T = 30° C., humidity 65% RH, time 9 (months)
[12] = T = 40° C., humidity 75% RH, time 0
[13] = T = 40° C., humidity 75% RH, time 3 (months)
[14] = T = 40° C., humidity 75% RH, time 6 (months)
[15] = female CD-1 mice, oral gavage 2000 mg/kg bw

CN1OC2CCCC(=O)C2C1Cc1ccccc1.O=C(O)CCC(=O)O (stereo not shown) [BTG 1640 succinate]
Purity % ([1]; T = 5° C., time 0): 99.2% | Purity % ([1]; T = 5° C., time 3 (months)): 98.0% | Purity % ([1]; T = 5° C., time 6 (months)): 98.1% | Purity % ([1]; T = 5° C., time 9 (months)): 96.8% | Purity % [1, 4]: 99.2% | Purity % [1, 5]: 92.7% | Purity % [1, 6]: 87.0% | Purity % [1, 7]: 90.5% | Purity % [1, 8]: 99.2% | Purity % [1, 9]: 85.4% | Purity % [1, 10]: 71.5% | Purity % [1, 11]: 66.8% | Purity % [1, 12]: 99.2% | Purity % [1, 13]: 16.5% | Stability compared with BTG 1640 hydrochloride ([1]; conditions a)-d)): even worse | Degradation (in words) ([1]; conditions a)-d), from the third month): shows degradation at all observation conditions | % impurities ([2]; T = 5° C., time 0): 0.77% | % impurities ([2]; T = 5° C., time 3 (months)): 2.00% | % impurities ([2]; T = 5° C., time 6 (months)): 1.90% | % impurities ([2]; T = 5° C., time 9 (months)): 3.20% | % impurities [2, 4]: 0.77% | % impurities [2, 5]: 7.30% | % impurities [2, 6]: 13.00% | % impurities [2, 7]: 9.50% | % impurities [2, 8]: 0.77% | % impurities [2, 9]: 14.60% | % impurities [2, 10]: 28.50% | % impurities [2, 11]: 33.30% | % impurities [2, 12]: 0.77% | % impurities [2, 13]: 83.50%

CN1OC2CCCC(=O)C2C1Cc1ccccc1.CS(=O)(=O)O (stereo not shown) [BTG 1640 methanesulphonate]
Purity % ([1]; T = 5° C., time 0): 99.6% | Purity % ([1]; T = 5° C., time 3 (months)): 99.5% | Purity % ([1]; T = 5° C., time 6 (months)): 99.3% | Purity % ([1]; T = 5° C., time 9 (months)): 99.1% | Purity % [1, 4]: 99.6% | Purity % [1, 5]: 98.2% | Purity % [1, 6]: 97.1% | Purity % [1, 7]: 95.0% | Purity % [1, 8]: 99.6% | Purity % [1, 9]: 96.0% | Purity % [1, 10]: 86.8% | Purity % [1, 11]: 74.2% | Purity % [1, 12]: 99.6% | Purity % [1, 13]: 81.5% | Purity % [1, 14]: 5.7% | Stability compared with BTG 1640 hydrochloride ([1]; conditions a)-d)): even worse | Degradation (in words) ([1]; conditions b)-d)): begins to degrade already after three months | % impurities ([2]; T = 5° C., time 0): 0.42% | % impurities ([2]; T = 5° C., time 3 (months)): 0.55% | % impurities ([2]; T = 5° C., time 6 (months)): 0.74% | % impurities ([2]; T = 5° C., time 9 (months)): 0.91% | % impurities [2, 4]: 0.42% | % impurities [2, 5]: 1.80% | % impurities [2, 6]: 2.90% | % impurities [2, 7]: 5.00% | % impurities [2, 8]: 0.42% | % impurities [2, 9]: 4.00% | % impurities [2, 10]: 13.20% | % impurities [2, 11]: 25.80% | % impurities [2, 12]: 0.42% | % impurities [2, 13]: 18.50% | % impurities [2, 14]: 94.30%

CN1OC2CCCC(=O)C2C1Cc1ccccc1 [BTG 1640 fumarate, fumarate salt of rel-(3R,3aS,7aS)-3-benzyl-2-methyl-2,3,3a,4,5,6,7,7a-octahydrobenzo[d]isoxazol-4-one]
concentration at 2 min ([3]; Sprague Dawley): 1070 ng/mL | concentration at 5 min ([3]; Sprague Dawley): 2350 ng/mL | concentration at 30 min ([3]; Sprague Dawley): 838 ng/mL | concentration at 90 min ([3]; Sprague Dawley): 0 ng/mL | concentration at 300 min ([3]; Sprague Dawley): 0 ng/mL | Plasma concentration of free BTG 1640 with respect to hydrochloride [3]: not significantly higher | availability of the active principle in the circulation [3]: more favourable | Stability compared with BTG 1640 hydrochloride [1]: higher stability | Purity % ([1]; T = 5° C., time 0): 99.5% | Purity % ([1]; T = 5° C., time 3 (months)): 100.0% | Purity % ([1]; T = 5° C., time 6 (months)): 100.0% | Purity % ([1]; T = 5° C., time 9 (months)): 99.9% | Purity % [1, 4]: 99.5% | Purity % [1, 5]: 100.0% | Purity % [1, 6]: 100.0% | Purity % [1, 7]: 99.9% | Purity % [1, 8]: 99.5% | Purity % [1, 9]: 100.0% | Purity % [1, 10]: 100.0% | Purity % [1, 11]: 99.9% | Purity % [1, 12]: 99.5% | Purity % [1, 13]: 100.0% | Purity % [1, 14]: 100.0% | % impurities ([2]; T = 5° C., time 0): 0.49% | % impurities ([2]; T = 5° C., time 3 (months)): 0.10% | % impurities ([2]; T = 5° C., time 6 (months)): 0.10% | % impurities ([2]; T = 5° C., time 9 (months)): 0.10% | % impurities [2, 4]: 0.49% | % impurities [2, 5]: 0.10% | % impurities [2, 6]: 0.10% | % impurities [2, 7]: 0.10% | % impurities [2, 8]: 0.49% | % impurities [2, 9]: 0.10% | % impurities [2, 10]: 0.10% | % impurities [2, 11]: 0.10% | % impurities [2, 12]: 0.49% | % impurities [2, 13]: 0.10% | % impurities [2, 14]: 0.10% | Impurities (in words) ([2]; condition d): 40° C./75% RH): invariable impurity profile | Clinical signs (female CD-1 mice; [15]): quickly reversible neurological signs | Histopathological examination of kidneys (female CD-1 mice; [15]): only a mild dilatation of convoluted tubules | Toxicity compared with hydrochloride (female CD-1 mice; female mice, 2000 mg/kg bw): strongly less toxic

CN1OC2CCCC(=O)C2C1Cc1ccccc1.O=C(O)/C=C\C(=O)O (stereo not shown) [BTG 1640 maleate]
Purity % ([1]; T = 5° C., time 0): 99.8% | Purity % ([1]; T = 5° C., time 3 (months)): 100.0% | Purity % ([1]; T = 5° C., time 6 (months)): 100.0% | Purity % ([1]; T = 5° C., time 9 (months)): 99.8% | Purity % [1, 4]: 99.8% | Purity % [1, 5]: 99.8% | Purity % [1, 6]: 100.0% | Purity % [1, 7]: 99.7% | Purity % [1, 8]: 99.8% | Purity % [1, 9]: 99.5% | Purity % [1, 10]: 98.9% | Purity % [1, 11]: 95.9% | Purity % [1, 12]: 99.8% | Purity % [1, 13]: 24.4% | Degradation (in words) ([1]; condition c) 30° C./65% RH, at sixth month): considerable degradation | Stability (in words) ([1]; condition d): 40° C. and 75% RH): degrades in unacceptable way | Stability profile (in words) ([1]; conditions a) and b)): acceptable profile | Stability compared with BTG 1640 hydrochloride ([1]; conditions a)-d)): even worse | % impurities ([2]; T = 5° C., time 0): 0.23% | % impurities ([2]; T = 5° C., time 3 (months)): 0.10% | % impurities ([2]; T = 5° C., time 6 (months)): 0.10% | % impurities ([2]; T = 5° C., time 9 (months)): 0.19% | % impurities [2, 4]: 0.23% | % impurities [2, 5]: 0.22% | % impurities [2, 6]: 0.10% | % impurities [2, 7]: 0.29% | % impurities [2, 8]: 0.23% | % impurities [2, 9]: 0.49% | % impurities [2, 10]: 1.10% | % impurities [2, 11]: 4.20% | % impurities [2, 12]: 0.23% | % impurities [2, 13]: 75.60%

Reference: patent US20100069450A1, “SALT OF 3-BENZYL-2-METHYL-2,3,3A,4,5,6,7, 7A- OCTAHYDROBENZO[D]ISOXAZOL-4-ONE” (ABIOGEN PHARMA S.P.A, priority 2006, published 2010)
